This is an account of results in patent US11034671B2, “Apoptosis signal-regulating kinase inhibitors and uses thereof” (SICHUAN HAISCO PHARMACEUTICAL CO., LTD., priority 2017, dated 2021).

A value given as a limit tells only on which side of the number the result lay.

The target of this test is ASK1 (Homo sapiens (Human), UniProt Q99683). The experiment in a line: ASK1 KINOMEscan assay (biochemical Kd), competition binding. The settings on record: DNA-tagged ASK1 kinase, 11-point 3-fold dilution. The method, then: The binding of compounds to ASK1 were determined using DiscoverX's proprietary technology. […] The assay is performed by combining three components: DNA-tagged ASK1 kinase; immobilized ligand; and a test compound. The ability of the test compound to compete with the immobilized ligand is measured via quantitative PCR of the DNA tag. […] The liganded beads were blocked with excess biotin and washed with blocking buffer (SeaBlock (Pierce), 1% BSA, 0.05% Tween 20, 1 mM DTT) to remove unbound ligand and to reduce nonspecific binding. […] Kds were determined using an 11-point 3-fold compound dilution series with three DMSO control points. […] The compounds were then diluted directly into the assays such that the final concentration of DMSO was 0.9%. All reactions were performed in polypropylene 384-well plate. […] The kinase concentration in the eluates was measured by qPCR. Most Kds were determined using a compound top concentration=30,000 nM. […] Binding constants (Kds) were calculated with a standard dose-response curve using the Hill equation: Response=Background+{(Signal−Background)/[1+(Kd^Hill Slope/Dose^Hill Slope)]}, the Hill Slope was set to −1, and curves were fitted using a non-linear least square fit with the Levenberg-Marquardt algorithm.
Sequence of ASK1 (Q99683 whole entry): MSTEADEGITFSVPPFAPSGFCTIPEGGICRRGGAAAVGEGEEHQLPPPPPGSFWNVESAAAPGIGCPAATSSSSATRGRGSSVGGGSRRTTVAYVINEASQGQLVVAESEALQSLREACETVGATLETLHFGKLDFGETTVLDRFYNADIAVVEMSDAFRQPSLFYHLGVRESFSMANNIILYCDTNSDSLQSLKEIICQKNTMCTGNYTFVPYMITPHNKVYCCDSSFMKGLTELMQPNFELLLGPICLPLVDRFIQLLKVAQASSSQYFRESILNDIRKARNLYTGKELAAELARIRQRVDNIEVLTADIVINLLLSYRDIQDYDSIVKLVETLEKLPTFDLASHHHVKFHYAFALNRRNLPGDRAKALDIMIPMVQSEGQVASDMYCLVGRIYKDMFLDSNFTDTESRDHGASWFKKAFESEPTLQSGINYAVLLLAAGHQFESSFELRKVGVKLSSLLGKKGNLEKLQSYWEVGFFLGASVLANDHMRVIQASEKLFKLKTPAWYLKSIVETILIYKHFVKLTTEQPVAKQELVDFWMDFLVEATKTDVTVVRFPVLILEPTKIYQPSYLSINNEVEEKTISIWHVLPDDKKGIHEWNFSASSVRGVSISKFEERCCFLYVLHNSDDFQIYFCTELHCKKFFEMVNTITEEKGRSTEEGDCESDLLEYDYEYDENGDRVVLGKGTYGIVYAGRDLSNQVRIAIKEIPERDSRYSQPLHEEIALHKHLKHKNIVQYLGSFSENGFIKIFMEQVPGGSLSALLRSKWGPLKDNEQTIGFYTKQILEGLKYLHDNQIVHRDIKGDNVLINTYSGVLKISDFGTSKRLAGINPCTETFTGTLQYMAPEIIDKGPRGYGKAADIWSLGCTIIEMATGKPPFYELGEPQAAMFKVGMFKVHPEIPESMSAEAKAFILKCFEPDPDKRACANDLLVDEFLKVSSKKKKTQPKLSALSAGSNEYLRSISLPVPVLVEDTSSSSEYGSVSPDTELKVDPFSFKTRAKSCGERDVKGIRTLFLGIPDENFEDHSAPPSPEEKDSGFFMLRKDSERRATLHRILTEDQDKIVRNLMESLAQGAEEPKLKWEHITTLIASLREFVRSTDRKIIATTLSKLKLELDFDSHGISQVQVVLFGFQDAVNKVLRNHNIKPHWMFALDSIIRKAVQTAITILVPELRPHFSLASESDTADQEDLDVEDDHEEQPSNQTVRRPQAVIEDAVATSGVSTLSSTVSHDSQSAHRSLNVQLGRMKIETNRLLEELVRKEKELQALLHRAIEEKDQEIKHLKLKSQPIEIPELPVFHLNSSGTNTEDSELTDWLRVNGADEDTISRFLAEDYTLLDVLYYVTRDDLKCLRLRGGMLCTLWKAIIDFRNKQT
Broadly, the Kd is the concentration at which binding is half-saturated. The low end stands for a tighter complex, the high end for a looser complex. Compound `Cn1ncc2cc(-c3ccc4c(c3)C(=O)Nc3cccc(n3)-c3nncn3CCCCO4)ccc21` [Example 55] came in with a dissociation constant Kd of less than 10 nM.

As to `COc1ccc2c(c1)C(=O)Nc1cccc(n1)-c1nncn1CCCCCCO2` [Example 11], the Kd is less than 10 nM.

On to `O=C1Nc2cccc(n2)-c2nncn2CCCCOc2cc(F)c(-c3ccc(C4CC4)nc3)cc21` [Example 68], for which the dissociation constant (Kd) was less than 10 nM.

With `Cc1ccc(-c2ccc3c(c2)C(=O)Nc2cccc(n2)-c2nncn2CC(C)CCO3)cn1` (stereo not drawn) [Example 80], the Kd was less than 10 nM.

In turn, `Cc1cc2c(cc1-c1ccc(C3CC3)nc1)C(=O)Nc1cccc(n1)-c1nncn1CCCCO2` [Example 65] yielded a dissociation constant (Kd) of less than 10 nM.

Turning to `O=C1Nc2cccc(n2)-c2nncn2CCCOCc2ccc(-n3cnc(C4CC4)c3)cc21` [Example 103], the Kd was less than 10 nM.

In turn, `O=C1Nc2cccc(n2)-c2nncn2C/C=C/CCOc2ccc(OCc3ccccc3)cc21` [Example 17] had an equilibrium dissociation constant (Kd) of 10 to 100 nM.

Regarding `N#Cc1ccc2c(c1)OCCCCn1cnnc1-c1cccc(n1)NC2=O` [Example 96], the Kd is 10 to 100 nM.

For `N#Cc1ccc2c(c1)C(=O)Nc1cccc(n1)-c1nncn1CCCCO2` [Example 31], the Kd was less than 10 nM.

As to `O=C1Nc2cccc(n2)-c2nncn2CCCCOc2cc(F)c(F)cc21` [Example 25], the Kd was in the range of 100 to 1000 nM.

Compound `Cc1ccc(-c2ccc3c(c2)C(=O)Nc2cccc(n2)-c2nncn2C[C@@H]2CC2CO3)cn1` (stereo partly drawn) [Example 81] returned an equilibrium dissociation constant (Kd) of less than 10 nM.

In turn, `O=C1Nc2cccc(n2)-c2nncn2CCCCOc2ccc(-c3cnc(F)c(F)c3)cc21` [Example 98] showed a dissociation constant (Kd) of less than 10 nM.

`N#Cc1cc2c(cc1F)OCCCCn1cnnc1-c1cccc(n1)NC2=O` [Example 44] yielded a dissociation constant (Kd) of 10 to 100 nM.

In the case of `O=C1Nc2cccc(n2)-c2nncn2CCCOc2ccc(-c3ccc(C(F)F)nc3)cc21` [Example 90], the equilibrium dissociation constant (Kd) is greater than 1000 nM.

As for `Cc1ccc(-c2ccc3c(c2)C(=O)Nc2cccc(n2)-c2nncn2C2C[C@H]2CCO3)cn1` (stereo in doubt) [Example 97], the Kd is less than 10 nM.

On to `CCc1ccc(-c2ccc3c(c2)C(=O)Nc2cccc(n2)-c2nncn2CCCOC3)cn1` [Example 102], for which the equilibrium dissociation constant (Kd) is less than 10 nM.

For `O=C1Nc2cccc(n2)-c2nncn2CC=CCCCOc2ccc(Br)cc21` [Example 12], the Kd lay in the range of 10 to 100 nM.

For `O=C1Nc2cccc(n2)-c2nncn2CCCOc2ccc(Br)cc21` [Example 33], the Kd lay in the range of 100 to 1000 nM.

In turn, `Cc1ccc(-c2ccc3c(c2)C(=O)Nc2cccc(n2)-c2nncn2CCO3)cn1` [Example 72] came in with a Kd greater than 1000 nM.

On to `CCc1ccc(-c2ccc3c(c2)C(=O)Nc2cccc(n2)-c2nncn2CCCS3)cn1` [compound 92], for which the Kd was less than 10 nM.

For `Cc1ncc(-c2ccc3c(c2)C(=O)Nc2cccc(n2)-c2nncn2CCCCO3)cn1` [Example 73], the Kd was less than 10 nM.

The compound `CC(F)(F)c1ccc(-c2ccc3c(c2)C(=O)Nc2cccc(n2)-c2nncn2CCCCO3)cn1` [Example 78] yielded a dissociation constant Kd of less than 10 nM.

`CC1CCOc2ccc(-c3ccc(C(F)F)nc3)cc2C(=O)Nc2cccc(n2)-c2nncn21` (stereo not drawn) [Example 83] came in with a dissociation constant (Kd) greater than 1000 nM.

The compound `Cc1ccc(-c2ccc3c(c2)C(=O)Nc2cccc(n2)-c2nncn2CCCS3)cn1` [Example 91] had a Kd greater than 1000 nM.

As to `Cc1ccc(-c2cc3c(cc2C)OCCCCn2cnnc2-c2cccc(n2)NC3=O)cn1` [Example 51], the Kd was less than 10 nM.

In turn, `O=C1Nc2cccc(n2)-c2nncn2CCCCOc2cc(F)c(Br)cc21` [Example 28] registered a dissociation constant Kd of 100 to 1000 nM.

Compound `O=C1Nc2cccc(n2)-c2nncn2CCCCCc2ccc(-c3ccc(C4CC4)nc3)cc21` [Example 8] displayed a dissociation constant (Kd) of 10 to 100 nM.

Take `O=C1Nc2cccc(n2)-c2nncn2CCCOc2ccc(-c3ccc(C(F)F)nc3)cc21` [Example 79]: the dissociation constant (Kd) was in the range of 10 to 100 nM.

Turning to `O=C1Nc2cccc(n2)-c2nncn2C/C=C\COc2ccc(Br)cc21` [Example 16], the dissociation constant (Kd) is 10 to 100 nM.

The compound `O=C1Nc2cccc(n2)-c2nncn2CCCCOc2ccc(-c3ccc(CF)nc3)cc21` [Example 87] yielded an equilibrium dissociation constant (Kd) of less than 10 nM.

For the compound `O=C1Nc2cccc(n2)-c2nncn2CC=CCCCOc2ccc(-c3ccc(C4CC4)nc3)cc21` [Example 13], the dissociation constant (Kd) is greater than 1000 nM.

Take `Cc1ccc(-c2ccc3c(c2)C(=O)Nc2cccc(n2)-c2nncn2[C@@H](C)CCCO3)cn1` [Example 88]: the equilibrium dissociation constant (Kd) is less than 10 nM.

As to `O=C1Nc2cccc(n2)-c2nncn2CCCOCc2ccc(-c3ccc(C(F)F)nc3)cc21` [Example 82], the dissociation constant Kd was less than 10 nM.

Compound `O=C1Nc2cccc(n2)-c2nncn2C2CC(C2)Oc2ccc(-c3ccc(C(F)F)nc3)cc21` [Example 93] returned a dissociation constant (Kd) of 100 to 1000 nM.

`Cc1ccc(-c2ccc3c(c2)C(=O)Nc2cccc(n2)-c2nncn2C[C@H]2CC2CO3)cn1` (stereo partly drawn) [Example 77] returned a dissociation constant (Kd) of less than 10 nM.

In turn, `O=C1Nc2cccc(c2)-c2nncn2CCCOc2ccc(-c3ccc(C4CC4)nc3)cc21` [Example 21] yielded an equilibrium dissociation constant (Kd) greater than 1000 nM.

`O=C1Nc2cccc(n2)-c2nncn2CC=CCCOc2ccc(Br)cc21` [Example 10] had a Kd of less than 10 nM.

`COc1ccc2c(c1)C(=O)Nc1cccc(n1)-c1nncn1CCCCCO2` [Example 2]: the Kd is less than 10 nM.

The compound `O=C1Nc2cccc(n2)-c2nncn2CC=CCCOc2ccc(-c3ccc(C4CC4)nc3)cc21` [Example 14] yielded a Kd of 10 to 100 nM.

`O=C1Nc2cccc(n2)-c2nncn2C/C=C/COc2ccc(OCc3ccccc3)cc21` [Example 18]: the Kd was less than 10 nM.

In turn, `O=C1Nc2cccc(n2)-c2nncn2CCCOCc2ccc(-c3ccc(CF)nc3)cc21` [Example 100] displayed a Kd of less than 10 nM.

`CC(C)n1nccc1-c1ccc2c(c1)C(=O)Nc1cccc(n1)-c1nncn1CCCCO2` [Example 45] registered a Kd of 100 to 1000 nM.

In the case of `Cc1ccc(-c2ccc3c(c2)C(=O)Nc2cccc(n2)-c2nncn2CC[C@@H](C)CO3)cn1` [Example 104], the equilibrium dissociation constant (Kd) is less than 10 nM.

`Cc1ccc(-c2ccc3c(c2)C(=O)Nc2cccc(n2)-c2nncn2[C@H]2CC[C@H](CC2)O3)cn1` [Example 71]: the Kd is less than 10 nM.

The compound `CC(C)(O)c1ccc2c(c1)OCCCCn1cnnc1-c1cccc(n1)NC2=O` [Example 53] had a dissociation constant (Kd) of less than 10 nM.

`O=C1Nc2cccc(n2)-c2nncn2CCCOCc2ccc(-c3cnc(F)c(F)c3)cc21` [Example 107] returned a dissociation constant (Kd) of 10 to 100 nM.

As for `Cc1c(F)c(F)cc2c1C(=O)Nc1cccc(n1)-c1nncn1CCCCO2` [compound 26], the Kd is 100 to 1000 nM.

For the compound `COc1cc2c(cc1OC)C(=O)Nc1cccc(n1)-c1nncn1CCCCO2` [Example 29], the Kd was 100 to 1000 nM.

In the case of `COc1ccc2c(c1)C(=O)Nc1cccc(n1)-c1nncn1CC/C=C/CO2` [Example 1], the dissociation constant Kd is less than 10 nM.

The compound `O=C1Nc2cccc(n2)-c2nncn2CCCCCCOc2ccc(-c3ccc(C4CC4)nc3)cc21` [Example 9] displayed a Kd of 100 to 1000 nM.

For `COc1cc2c(cc1Br)OCCCCn1cnnc1-c1cccc(n1)NC2=O` [Example 59], the dissociation constant (Kd) was in the range of 100 to 1000 nM.

`O=C1Nc2cccc(n2)-c2nncn2CCCOCc2ccc(-c3ccc(C4CC4)nc3)cc21` [Example 95]: the Kd was less than 10 nM.

Take `COc1ccc2c(c1)C(=O)Nc1cccc(n1)-c1nncn1CCCCC2` [Example 5]: the Kd lay within 100 to 1000 nM.

`O=C1Nc2cccc(n2)-c2nncn2CCCCOc2ccc(-c3ccc4nccn4c3)cc21` [Example 58] had a Kd of less than 10 nM.

As for `COc1ccc2c(c1)C(=O)Nc1cccc(n1)-c1nncn1CCCCO2` [Example 7], the Kd was less than 10 nM.

Turning to `COc1ccc2c(c1)C(=O)Nc1cccc(n1)-c1nncn1CC=CCO2` [Example 6], the Kd was in the range of 10 to 100 nM.

In turn, `Cc1ccc(-c2ccc3c(c2)C(=O)Nc2cccc(n2)-c2nncn2CCCO3)cn1` [Example 60] had a Kd of less than 10 nM.

Take `Cc1ccc(-c2ccc3c(c2)C(=O)Nc2cccc(n2)-c2nncn2[C@H]2C[C@@H](CO3)C2)cn1` [Example 69]: the Kd is less than 10 nM.

In the case of `COc1ccc2c(c1)C(=O)Nc1cccc(n1)-c1nncn1CC/C=C/C2` [Example 4], the Kd is greater than 1000 nM.

As to `COc1ccc2c(c1)C(=O)Nc1cccc(n1)-c1nncn1CCC/C=C/CO2` [Example 3], the dissociation constant (Kd) lay in the range of 10 to 100 nM.

`O=C1Nc2cccc(n2)-c2nncn2CCCCOc2ccc(-c3cnc(F)c(Cl)c3)cc21` [Example 99] had a Kd of less than 10 nM.

Turning to `Cc1ccc(-c2ccc3c(c2)C(=O)Nc2cccc(n2)-c2nncn2[C@H](C)CCCO3)cn1` [Example 89], the Kd is less than 10 nM.

`O=C1Nc2cccc(n2)-c2nncn2CCCOCc2ccc(-c3cnc(F)c(Cl)c3)cc21` [Example 106] came in with a Kd of 10 to 100 nM.

With `O=C1Nc2cccc(n2)-c2nncn2[C@H]2CC[C@H](CC2)Oc2ccc(-c3ccc(C(F)F)nc3)cc21` [Example 84], the Kd was less than 10 nM.

For `O=C1Nc2cccc(n2)-c2nncn2[C@H]2CCC(C2)Oc2ccc(-c3ccc(C(F)F)nc3)cc21` [Example 86], the dissociation constant (Kd) is less than 10 nM.

Regarding `O=C1Nc2cccc(n2)-c2nncn2CCCOCc2ccc(-c3ccc(C(F)(F)F)nc3)cc21` [Example 101], the Kd lay in the range of 10 to 100 nM.

In turn, `O=C1Nc2cccc(n2)-c2nncn2CCCCOc2ccc(C(F)(F)F)cc21` [Example 32] came in with an equilibrium dissociation constant (Kd) of 10 to 100 nM.

On to `Cc1ccc(-c2cc3c(cc2F)OCCCCn2cnnc2-c2cccc(n2)NC3=O)cn1` [Example 64], for which the Kd was 100 to 1000 nM.

In turn, `O=C1Nc2cccc(n2)-c2nncn2CCCCOc2ccc(OC3CCOC3)cc21` (stereo not drawn) [Example 20] displayed a dissociation constant Kd of 10 to 100 nM.
